pIC50: −log10 of the molar value.
Key:
[1] = system: BT20 triple negative breast cancer cells; experiment: BT20 mammosphere assay; assay type: cell-based, human
Method: Cells were then fractionated and verified by HSP90 cytosolic protein, Bap31 membrane protein, or HDAC nuclear protein. B. MDA-MB-468 cells were serum starved overnight then stimulated with EGF on ice for 10 minutes. […] B. MDA-MB-468 cells were serum starved overnight then incubated on ice with 10 ng/mL EGF for 10 minutes. […] C. […] After the second week, the number of secondary mammospheres were counted.

WAP-TGFα tumors = experiment: NanoString analysis of WAP-TGFα tumors (PanCancer IO 360 Panel); assay type: in vivo, mouse
Method: A. Tumors (n=6 each treatment) from WAP-TGF mice as described in FIG. 1 were embedded and analyzed by NanoString. […] C. Tumors were dissected, lysed, and analyzed for apoptosis by probing for cleaved PARP and PDL1 expression.
(§1) C. WAP-TGFα tumors treated with either SNX1.3 or cPTD4 were analyzed for NK cells using an anti-NKp46 antibody. Inset is 20×.
Due to the increased leukocyte infiltration identified by histology of cSNX1.3-treated WAP-TGFα mice, NanoString analysis was performed using a panel that identifies alterations in immune regulators through localized analysis of transcript expression (PanCancer IO 360 Panel). […] These include several immune/inflammatory genes (such as CD2, TLR, CD28, H2-M3, Ly6C1, cytokines, and chemokines) as well as genes that could impact the metastatic potential of the microenvironment (including collagen 11A1 and MM P12). NanoString bioinformatics analysis further identified that these changes could be due to an increase in Cytotoxic T lymphocytes (CTLs) in cSNX1.3-treated samples compared to PTD4 (FIG. 8B). […] Therefore, tumor lysates were prepared and evaluated for apoptosis and a loss of the negative immune checkpoint receptor PDL1 (FIG. 8C). […] These changes could indicate an alteration from an immune-suppressive to an immune-surveilling microenvironment.

CHO cells = experiment: Effect on CHO cells that lack EGFR expression; assay type: cell-based
Text: No effect on CHO cells that lack EGFR expression was observed.

BT20 cells = assay type: cell-based, human
Method: B. MDA-MD-468 cells were transduced with an IPTG inducible shEGFR targeted against the 3′ UTR of EGFR. These cells were incubated with IPTG for the indicated number of days and lysates were generated to confirm knock down of EGFR. C. In tandem with B., cells were plated and incubated +/−IPTG for 2 days prior to drug treatment. […] After 5 days of IPTG and 3 days of peptide treatment viability was measured using an MTT assay.
To investigate rt-EGFR, the role of the Sorting Nexins to regulate EGFR trafficking to the lysosome for degradation was investigated. To determine if SNX1 domains could be therapeutically mimicked, three SNX1-based peptides were synthesized, each of which was generated in tandem with a Cell Penetrating Peptide domain (PTD-4) to allow for intracellular penetration^19 (SNX1.1, 1.2 and 1.3, FIG. 2A). The ability of each peptide to reduce cell survival in the triple negative breast cancer cell line BT20 was evaluated.
EGFR activity is known to promote the activity of other RTKs, including those in the EGFR family (HER2, HER3 and HER4) and the c-Met receptor (Puri and Salgia 2008; Linklater et al. 2016). Therefore, the ability of SNX1.3 to inhibit 2D migration was next evaluated, both in response to EGF as well as other migration-inducing ligands. […] Cells were plated on plastic and allowed to migrate into an artificial wound over 12 hours. […] To determine if this inhibitory effect was restricted to EGF-induced migration, the ability of SNX1.3 to impact neuregulin (NRG1) was also tested and hepatic growth factor (HGF)-induced migration. NRG is the ligand for HER3 and HER4, and HGF the ligand for the c-Met receptor, both of which are receptor tyrosine kinases. In addition, soluble hyaluronic acid (HA)-induced migration, the ligand for CD44, was also tested [a non-kinase membrane receptor that induces migration (Louderbough, Lopez, and Schroeder 2010)]. […] Note that all receptors undergo endocytosis, with the RTKs primarily undergoing clathrin-dependent endocytosis, while CD44 endocytosis is clathrin-independent (Dutta and Donaldson 2015).

[2] = system: H1975 cell line with an EGFR driver mutation in the kinase domain (T790M); experiment: MTT cell viability assay in H1975 cells; assay type: cell-based; details: 3 days
MDA-MB-468 cells = experiment: Bulk RNAseq of treated MDA-MB-468 cells; assay type: cell-based, human; details: MDA-MB-468, bulk RNAseq in triplicate
Method: as §1
A-C. […] A. A gene ontology enrichment bubble plot was produced, and the top 30 enriched GO terms are shown. Color indicates −1*log 10(FDR) for significance of overlap (the higher the more significant). X axis=log odds ratio for genes annotated to that GO term. […] C. RT-PCR analysis of IL1RL1.
In addition to bioinformatics identification of CTLs in these tumors, similar analysis implicated recruitment of NK cells as well (FIG. 9). As a part of the innate immune system, NK cells should only be recruited if a change has occurred to display NK-activating antigens. While there are many such antigens expressed under a variety of immune modulation conditions, some are highly associated with activation of NK cells against cancers, such as ULBP2/3 or MICA/MICB32.
A significant impact on the immune response, especially IL-1 dependent pathways was identified (FIG. 12A). IL-1-specific genes were searched and an upregulation in several IL1R genes, including IL1R2, IL1RL1, IL1RL2, IL1RAP and IL1RN (FIG. 12B) were found. […] It is hypothesized that the transient and targeted activation of the IL1/TLR pathway in the tumors may allow for the immune system to become active where previously these tumors were immune suppressive. […]

CC[C@H](C)[C@H](NC(=O)[C@@H](NC(=O)[C@H](Cc1c[nH]cn1)NC(=O)[C@H](CC(N)=O)NC(=O)[C@H](CCCCN)NC(=O)[C@H](C)NC(=O)[C@H](CCCNC(=N)N)NC(=O)[C@H](C)NC(=O)[C@H](CCC(N)=O)NC(=O)[C@H](CCCNC(=N)N)NC(=O)[C@H](C)NC(=O)[C@H](C)NC(=O)[C@H](C)NC(=O)[C@H](CCCNC(=N)N)NC(=O)[C@H](C)NC(=O)[C@H](Cc1ccc(O)cc1)NC(C)=O)C(C)C)C(=O)N[C@@H](CCCCN)C(=O)N[C@@H](Cc1ccc(O)cc1)C(=O)N[C@@H](CC(C)C)C(=O)N[C@@H](CCC(=O)O)C(=O)N[C@H](C(=O)N[C@@H](CC(C)C)C(=O)N[C@@H](CC(C)C)C(=O)N[C@@H](Cc1ccc(O)cc1)C(=O)N[C@@H](CO)C(=O)N[C@@H](CCC(N)=O)C(=O)N[C@@H](CCC(N)=O)C(=O)N[C@@H](CCC(N)=O)C(=O)N[C@@H](CC(C)C)C(=O)N[C@@H](C)C(=O)N[C@@H](CCCCN)C(=O)N[C@@H](Cc1ccc(O)cc1)C(=O)N[C@@H](Cc1c[nH]c2ccccc12)C(=O)N[C@@H](CCC(=O)O)C(=O)N[C@@H](C)C(=O)N[C@@H](Cc1ccccc1)C(=O)N[C@@H](CC(C)C)C(N)=O)[C@@H](C)O [cSNX1.3]
secondary sphere formation after treatment in the first week only ([1]; BT20, cSNX1.3 in first week, cPTD4 or vehicle in second week): significant reduction of sphere formation
mammosphere formation ([1]; BT20, first week of treatment): no mammospheres were formed
secondary mammosphere formation, treated in the second week ([1]; BT20, re-plated, treatment on the second week): no mammosphere formation
expression of TLR1, TLR7, TLR8, TLR9, IRF5 and IRF8 (WAP-TGFα tumors; NanoString): increased expression
Cytotoxic T lymphocytes (CTLs) in tumors (WAP-TGFα tumors; NanoString bioinformatics, compared to PTD4, six tumors each): increase
NK cells in tumor samples (WAP-TGFα tumors; NanoString, compared to PTD4 control): increase
effect on CHO cells (CHO cells): No effect
pIC50 (BT20 cells): 4.60
inhibition of cell survival, compared with Sapitinib (BT20 cells; BT20, 3 days, MTT assay): more effective than Sapitinib
effect on cell viability [2]: no effect
NK activating antigens ULBP2, ULBP3, MICA and MICB (MDA-MB-468 cells): increased
PDL1 expression (MDA-MB-468 cells): did not alter

— patent publication US20240166702A1, “COMPOSITIONS AND METHODS FOR TREATING BREAST CANCER” (Arizona Board of Regents on Behalf of The University of …, priority 2021, published 2024)
